Reference: patent publication US6737383B1, “Herbicidal oxadiazolidines” (priority 1999, dated 2004)

Key:
[1] = tested on: wild oat; assay: Test B pre/postemergence wild oat; assay type: in vivo, Avena fatua
Summary of the method: (§1)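 Response is a visual 0-to-10 score relative to untreated plants, where 0 means no effect and 10 means complete control, taken twelve to sixteen days after application. Treatments went onto soil at planting and onto foliage of 1- to 4-leaf plants, using a surfactant-containing non-phytotoxic solvent.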

[2] = tested on: smallflower flatsedge; assay: Test B flood test smallflower flatsedge; assay type: in vivo, Cyperus difformis
Summary of the method: (§2)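 Read-out is a visual response score from 0 (no effect) to 10 (complete control), assigned by comparison with untreated controls. Treatment was applied at the 2-leaf stage, and plants stayed in the greenhouse for twelve to sixteen days before scoring.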

[3] = tested on: surinam grass; assay: Test B pre/postemergence surinam grass; assay type: in vivo, Brachiaria decumbens
Summary of the method: as §1

[4] = tested on: pigweed; assay: Test B pre/postemergence pigweed; assay type: in vivo, Amaranthus retroflexus
Summary of the method: as §1

[5] = tested on: blackgrass; assay: Test B pre/postemergence blackgrass; assay type: in vivo, Alopecurus myosuroides
Summary of the method: as §1

[6] = tested on: crabgrass; assay: Test B pre/postemergence crabgrass; assay type: in vivo, Digitaria sanguinalis
Summary of the method: as §1

[7] = tested on: bedstraw; assay: Test B pre/postemergence bedstraw; assay type: in vivo, Galium aparine; details: Preemergence
Summary of the method: as §1

[8] = tested on: bamyardgrass; assay: Test B flood test barnyardgrass; assay type: in vivo, Echinochloa crus-galli
Summary of the method: as §2

[9] = tested on: giant foxtail; assay: Test B pre/postemergence giant foxtail; assay type: in vivo, Setaria faberii
Summary of the method: as §1

[10] = tested on: cocklebur; assay: Test B pre/postemergence cocklebur; assay type: in vivo, Xanthium strumarium
Summary of the method: as §1

[11] = tested on: soybean; assay: Test B pre/postemergence soybean; assay type: in vivo, Glycine max
Summary of the method: as §1

[12] = tested on: morningglory; assay: Test B pre/postemergence morningglory; assay type: in vivo, Ipomoea hederacea
Summary of the method: as §1

[13] = tested on: wheat; assay: Test B pre/postemergence wheat; assay type: in vivo, Triticum aestivum
Summary of the method: as §1

[14] = tested on: velvetleaf; assay: Test B pre/postemergence velvetleaf; assay type: in vivo, Abutilon theophrasti
Summary of the method: as §1

[15] = tested on: rice; assay: Test B flood test rice; assay type: in vivo, Oryza sativa
Summary of the method: as §2

[16] = tested on: purple nutsedge; assay: Test B pre/postemergence purple nutsedge; assay type: in vivo, Cyperus rotundus
Summary of the method: as §1

[17] = Postemergence, Rate 500 g/ha, scale of 0 to 10 where 0 is no effect and 10 is complete control
[18] = Preemergence, Rate 62 g/ha, scale 0 to 10 (0 no effect, 10 complete control)
[19] = Preemergence, Rate 125 g/ha, scale of 0 to 10 where 0 is no effect and 10 is complete control
[20] = Preemergence, Rate 250 g/ha, scale 0 to 10, 0 is no effect, 10 is complete control
[21] = Preemergence, Rate 500 g/ha, scale 0 to 10, 0 is no effect, 10 is complete control
[22] = Rate 62 g/ha, flood test species, Pre-emergence, visual evaluation after twelve to sixteen days
[23] = Rate 125 g/ha, under heading Pre-emergence, flood test species, visual evaluation after twelve to sixteen days
[24] = Rate 250 g/ha, Pre-emergence, flood-test species, scale 0 to 10, 0 is no effect, 10 is complete control
[25] = Rate 500 g/ha, Pre-emergence, flood test species, scale 0 to 10 (0 no effect, 10 complete control)
[26] = Postemergence, Rate 125 g/ha, scale 0 to 10, 0 is no effect, 10 is complete control
[27] = Postemergence, Rate 250 g/ha, scale 0 to 10, 0 is no effect, 10 is complete control
[28] = Preemergence, Rate 250 g/ha, scale of 0 to 10 where 0 is no effect and 10 is complete control
[29] = Rate 62 g/ha, Postemergence, scale of 0 to 10 where 0 is no effect and 10 is complete control

Question: What does the source list for `Cc1nc(Cl)sc1C(C)n1c(=O)on(C(=O)N(c2ccccc2)C(C)C)c1=O` (stereo not drawn) [Compound 407]?
Answer: Wild oats plant response rating [1, 17]: 0; Plant response rating, Wild oats [1, 18]: 0; Plant response rating, Wild oats [1, 19]: 0; Wild oats plant response rating [1, 20]: 0; Wild oats plant response rating [1, 21]: 0; Plant response rating, S. Flatsedge (0 to 10 scale, 0 is no effect, 10 is complete control) [2, 22]: 0; S. Flatsedge plant response rating (0 to 10 scale, 0 is no effect, 10 is complete control) [2, 23]: 0; S. Flatsedge plant response rating [2, 24]: 0; S. Flatsedge plant response rating [2, 25]: 0; Plant response rating, B. signalgrass [3, 26]: 0; Plant response rating, B. signalgrass [3, 27]: 0; B. signalgrass plant response rating [3, 17]: 0; Plant response rating, B. signalgrass [3, 18]: 0; Plant response rating, B. signalgrass [3, 19]: 0; B. signalgrass plant response rating [3, 28]: 0; B. signalgrass plant response rating ([3]; Preemergence, Rate 500 g/ha, scale of 0 to 10 where 0 is no effect and 10 is complete control): 0; B. signalgrass plant response rating [3, 29]: 0; Plant response rating, Redroot pigweed [4, 27]: 0; Redroot pigweed plant response rating [4, 17]: 0; Plant response rating, Redroot pigweed [4, 18]: 0; Plant response rating, Redroot pigweed [4, 19]: 0; Redroot pigweed plant response rating [4, 20]: 0; Redroot pigweed plant response rating [4, 21]: 0; Plant response rating, Blackgrass [5, 26]: 0; Plant response rating, Blackgrass [5, 27]: 0; Blackgrass plant response rating [5, 17]: 7; Plant response rating, Blackgrass [5, 18]: 0; Plant response rating, Blackgrass [5, 19]: 0; Blackgrass plant response rating [5, 28]: 0; Blackgrass plant response rating [5, 21]: 0; Blackgrass plant response rating [5, 29]: 0; Plant response rating, Crabgrass [6, 26]: 0; Plant response rating, Crabgrass [6, 27]: 1; Crabgrass plant response rating [6, 17]: 3; Plant response rating, Crabgrass [6, 18]: 0; Plant response rating, Crabgrass [6, 19]: 2; Crabgrass plant response rating [6, 20]: 5; Crabgrass plant response rating [6, 21]: 9; Crabgrass plant response rating [6, 29]: 0; Plant response rating, Bedstraw ([7]; Rate 62 g/ha, scale 0 to 10 (0 no effect, 10 complete control)): 0; Plant response rating, Bedstraw ([7]; Rate 125 g/ha, scale of 0 to 10 where 0 is no effect and 10 is complete control): 0; Bedstraw plant response rating ([7]; Rate 250 g/ha, scale of 0 to 10 where 0 is no effect and 10 is complete control): 0; Bedstraw plant response rating ([7]; Rate 500 g/ha, scale 0 to 10, 0 is no effect, 10 is complete control): 0; Plant response rating, Barnyardgrass (0 to 10 scale, 0 is no effect, 10 is complete control) [8, 22]: 0; Barnyardgrass plant response rating (0 to 10 scale, 0 is no effect, 10 is complete control) [8, 23]: 0; Barnyardgrass plant response rating [8, 24]: 0; Barnyardgrass plant response rating [8, 25]: 0; Plant response rating, Giant foxtail [9, 26]: 0; Plant response rating, Giant foxtail [9, 27]: 3; Giant foxtail plant response rating [9, 17]: 8; Plant response rating, Giant foxtail [9, 18]: 0; Plant response rating, Giant foxtail [9, 19]: 6; Giant foxtail plant response rating [9, 20]: 9; Giant foxtail plant response rating [9, 21]: 10; Giant foxtail plant response rating [9, 29]: 0; Plant response rating, Cocklebur [10, 26]: 0; Plant response rating, Cocklebur [10, 27]: 0; Cocklebur plant response rating [10, 17]: 0; Plant response rating, Cocklebur [10, 18]: 0; Plant response rating, Cocklebur [10, 19]: 0; Cocklebur plant response rating [10, 20]: 0; Cocklebur plant response rating [10, 21]: 0; Cocklebur plant response rating [10, 29]: 0; Plant response rating, Soybean [11, 27]: 2; Soybean plant response rating [11, 17]: 2; Plant response rating, Soybean [11, 18]: 0; Plant response rating, Soybean [11, 19]: 0; Soybean plant response rating [11, 20]: 0; Soybean plant response rating [11, 21]: 0; Plant response rating, Morningglory [12, 27]: 10; Morningglory plant response rating [12, 17]: 10; Plant response rating, Morningglory [12, 18]: 0; Plant response rating, Morningglory [12, 19]: 0; Morningglory plant response rating [12, 20]: 0; Morningglory plant response rating [12, 21]: 0; Wheat plant response rating [13, 17]: 0; Plant response rating, Wheat [13, 18]: 0; Plant response rating, Wheat [13, 19]: 0; Wheat plant response rating [13, 20]: 0; Wheat plant response rating [13, 21]: 0; Plant response rating, Velvetleaf [14, 27]: 0; Velvetleaf plant response rating [14, 17]: 2; Plant response rating, Velvetleaf [14, 18]: 0; Plant response rating, Velvetleaf [14, 19]: 0; Velvetleaf plant response rating [14, 20]: 0; Velvetleaf plant response rating [14, 21]: 0; Plant response rating, Rice (0 to 10 scale, 0 is no effect, 10 is complete control) [15, 22]: 0; Rice plant response rating (0 to 10 scale, 0 is no effect, 10 is complete control) [15, 23]: 0; Rice plant response rating [15, 24]: 0; Rice plant response rating [15, 25]: 0; Plant response rating, Nutsedge [16, 27]: 0; Nutsedge plant response rating [16, 17]: 0; Plant response rating, Nutsedge [16, 18]: 0; Plant response rating, Nutsedge [16, 19]: 0; Nutsedge plant response rating [16, 20]: 0; Nutsedge plant response rating [16, 21]: 0
